Experimental data from patent US10213433B2 (AbbVie Inc., priority 2010, dated 2019).

Assays:
[1] = log D at pH 7.4 by an HPLC method; type: physicochemical
Description: Table 2 below presents data for log D (a parameter related to lipophilicity) at pH 7.4, as determined by an HPLC method, for representative compounds.

[2] = biological target: Bcl-2 protein (Homo sapiens (Human), UniProt P10415); test: Bcl-2 binding TR-FRET (Time-Resolved Fluorescence-Resonance-Energy-Transfer) assay; settings: inhibition constant for binding to Bcl-2 protein
Description: The smaller the Ki value, the greater is the binding affinity.

Chain of Bcl-2 protein (P10415 whole entry): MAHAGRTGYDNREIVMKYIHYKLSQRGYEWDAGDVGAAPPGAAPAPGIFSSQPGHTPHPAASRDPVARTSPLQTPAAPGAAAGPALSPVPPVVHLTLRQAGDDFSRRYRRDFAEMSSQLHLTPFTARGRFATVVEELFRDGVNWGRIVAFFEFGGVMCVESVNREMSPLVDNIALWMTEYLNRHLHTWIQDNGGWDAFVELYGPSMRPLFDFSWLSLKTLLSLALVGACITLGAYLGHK

Row | Compound | chromatographic logD [1] | Ki [2] | log D [1]
1 | CC1(C)CCC(CN2CCN(c3ccc(C(=O)NS(=O)(=O)c4ccc(OCC5COCCO5)c([N+](=O)[O-])c4)c(Oc4cnc5[nH]ccc5c4)c3)CC2)=C(c2ccc(Cl)cc2)C1 (stereo not shown) [Compound 12, 4-(4-{[2-(4-chlorophenyl)-4,4-dimethylcyclohex-1-en-1-yl]methyl}piperazin-1-yl)-N-{[4-(1,4-dioxan-2-ylmethoxy)-3-nitrophenyl]sulfonyl}-2-(1H-pyrrolo[2,3-b]pyridin-5-yloxy)benzamide] | 5.17 | < 10 pM | –
2 | CC1(C)CCC(CN2CCN(c3ccc(C(=O)NS(=O)(=O)c4ccc(OCC5CCOCC5)c([N+](=O)[O-])c4)c(Oc4cnc5[nH]ccc5c4)c3)CC2)=C(c2ccc(Cl)cc2)C1 [Compound 24, 4-(4-{[2-(4-chlorophenyl)-4,4-dimethylcyclohex-1-en-1-yl]methyl}piperazin-1-yl)-N-{[3-nitro-4-(tetrahydro-2H-pyran-4-ylmethoxy)phenyl]sulfonyl}-2-(1H-pyrrolo[2,3-b]pyridin-5-yloxy)benzamide] | 5.72 | < 10 pM | –
3 | CC1(C)CCC(CN2CCN(c3ccc(C(=O)NS(=O)(=O)c4ccc(OCC5(F)CCOCC5)c([N+](=O)[O-])c4)c(Oc4cnc5[nH]ccc5c4)c3)CC2)=C(c2ccc(Cl)cc2)C1 [Compound 37, 4-(4-{[2-(4-chlorophenyl)-4,4-dimethylcyclohex-1-en-1-yl]methyl}piperazin-1-yl)-N-({4-[(4-fluorotetrahydro-2H-pyran-4-yl)methoxy]-3-nitrophenyl}sulfonyl)-2-(1H-pyrrolo[2,3-b]pyridin-5-yloxy)benzamide] | 5.27 | < 10 pM | –
4 | CC1(C)CCC(CN2CCN(c3ccc(C(=O)NS(=O)(=O)c4cnc(OCC5(F)CCN(C6COC6)CC5)c(Cl)c4)c(Oc4cnc5[nH]ccc5c4)c3)CC2)=C(c2ccc(Cl)cc2)C1 [Compound 277, N-[(5-chloro-6-{[4-fluoro-1-(oxetan-3-yl)piperidin-4-yl]methoxy}pyridin-3-yl)sulfonyl]-4-(4-{[2-(4-chlorophenyl)-4,4-dimethylcyclohex-1-en-1-yl]methyl}piperazin-1-yl)-2-(1H-pyrrolo[2,3-b]pyridin-5-yloxy)benzamide] | 5.26 | < 10 pM | –
5 | CC1(C)CCC(CN2CCN(c3ccc(C(=O)NS(=O)(=O)c4ccc(OCC5(F)CCOCC5)c(Cl)c4)c(Oc4cnc5[nH]ccc5c4)c3)CC2)=C(c2ccc(Cl)cc2)C1 [Compound 286, N-({3-chloro-4-[(4-fluorotetrahydro-2H-pyran-4-yl)methoxy]phenyl}sulfonyl)-4-(4-{[2-(4-chlorophenyl)-4,4-dimethylcyclohex-1-en-1-yl]methyl}piperazin-1-yl)-2-(1H-pyrrolo[2,3-b]pyridin-5-yloxy)benzamide] | 5.66 | < 10 pM | –
6 | CC1(C)CCC(CN2CCN(c3ccc(C(=O)NS(=O)(=O)c4ccc(OC[C@H]5CC[C@H](N6CCOCC6)CC5)c(Cl)c4)c(Oc4cnc5[nH]ccc5c4)c3)CC2)=C(c2ccc(Cl)cc2)C1 [Compound 303, N-[(3-chloro-4-{[trans-4-(morpholin-4-yl)cyclohexyl]methoxy}phenyl)sulfonyl]-4-(4-{[2-(4-chlorophenyl)-4,4-dimethylcyclohex-1-en-1-yl]methyl}piperazin-1-yl)-2-(1H-pyrrolo[2,3-b]pyridin-5-yloxy)benzamide] | 6.24 | – | –
7 | CC1(C)CCC(CN2CCN(c3ccc(C(=O)NS(=O)(=O)c4ccc(NCCCN(C5CC5)C5COC5)c([N+](=O)[O-])c4)c(Oc4cnc5[nH]ccc5c4)c3)CC2)=C(c2ccc(Cl)cc2)C1 [Compound 311, 4-(4-{[2-(4-chlorophenyl)-4,4-dimethylcyclohex-1-en-1-yl]methyl}piperazin-1-yl)-N-{[4-({3-[cyclopropyl(oxetan-3-yl)amino]propyl}amino)-3-nitrophenyl]sulfonyl}-2-(1H-pyrrolo[2,3-b]pyridin-5-yloxy)benzamide] | 5.6 | < 10 pM | –
8 | CN1CCC[C@H]1C(=O)N1CCC(COc2ccc(S(=O)(=O)NC(=O)c3ccc(N4CCN(CC5=C(c6ccc(Cl)cc6)CC(C)(C)CC5)CC4)cc3Oc3cnc4[nH]ccc4c3)cc2Cl)CC1 [Compound 312, N-[(3-chloro-4-{[1-(1-methyl-L-prolyl)piperidin-4-yl]methoxy}phenyl)sulfonyl]-4-(4-{[2-(4-chlorophenyl)-4,4-dimethylcyclohex-1-en-1-yl]methyl}piperazin-1-yl)-2-(1H-pyrrolo[2,3-b]pyridin-5-yloxy)benzamide] | 6.47 | < 10 pM | –
9 | CC1(C)CCC(CN2CCN(c3ccc(C(=O)NS(=O)(=O)c4ccc(OCC5(F)CCN(C6COC6)CC5)c(Cl)c4)c(Oc4cnc5[nH]ccc5c4)c3)CC2)=C(c2ccc(Cl)cc2)C1 [Compound 322, N-[(3-chloro-4-{[4-fluoro-1-(oxetan-3-yl)piperidin-4-yl]methoxy}phenyl)sulfonyl]-4-(4-{[2-(4-chlorophenyl)-4,4-dimethylcyclohex-1-en-1-yl]methyl}piperazin-1-yl)-2-(1H-pyrrolo[2,3-b]pyridin-5-yloxy)benzamide] | 5.48 | < 10 pM | –
10 | CC1(C)CCC(CN2CCN(c3ccc(C(=O)NS(=O)(=O)c4ccc(NC[C@H]5CC[C@@](C)(O)CC5)c([N+](=O)[O-])c4)c(Oc4cnc5[nH]ccc5c4)c3)CC2)=C(c2ccc(Cl)cc2)C1 [Compound 337, 4-(4-{[2-(4-chlorophenyl)-4,4-dimethylcyclohex-1-en-1-yl]methyl}piperazin-1-yl)-N-[(4-{[(trans-4-hydroxy-4-methylcyclohexyl)methyl]amino}-3-nitrophenyl)sulfonyl]-2-(1H-pyrrolo[2,3-b]pyridin-5-yloxy)benzamide] | – | – | 5.48
11 | CC1(C)CCC(CN2CCN(c3ccc(C(=O)NS(=O)(=O)c4ccc(NC[C@H]5CC[C@](C)(O)CC5)c([N+](=O)[O-])c4)c(Oc4cnc5[nH]ccc5c4)c3)CC2)=C(c2ccc(Cl)cc2)C1 [Compound 338, 4-(4-{[2-(4-chlorophenyl)-4,4-dimethylcyclohex-1-en-1-yl]methyl}piperazin-1-yl)-N-[(4-{[(cis-4-hydroxy-4-methylcyclohexyl)methyl]amino}-3-nitrophenyl)sulfonyl]-2-(1H-pyrrolo[2,3-b]pyridin-5-yloxy)benzamide] | – | – | 5.67
